Measurements published in paper PMC10964431 (European journal of medicinal chemistry, 2024).
Entries after “also recorded” stand apart in the source; their conditions may differ.

What was measured:
SARS-CoV-2^WK−521 = assay: Immunocytochemistry assay of infected VeroE6 cells; type: cell-based; details: for infected cells by immunocytochemistry: VeroE6 cells exposed to SARS-CoV-2^WK−521; for infectivity and cytopathic effect of SARS-CoV-2: VeroE6^TMPRSS2 cells
SARS-CoV-2 = type: cell-based; details: VeroE6 cells
SARS-CoV-2 3CLpro = SARS-CoV-2 3CLpro (Severe acute respiratory syndrome coronavirus 2, UniProt P0DTD1); assay: SARS-CoV-2 3CLpro; type: biochemical

Compound	infected cells by immunocytochemistry (SARS-CoV-2^WK−521; 1 μM compound)	infected cells by immunocytochemistry (SARS-CoV-2^WK−521; 10 μM compound)	infected cells by immunocytochemistry (SARS-CoV-2^WK−521; 100 μM compound)	infectivity and cytopathic effect of SARS-CoV-2 (SARS-CoV-2^WK−521)	further results
CC(C)(C)[C@H](NC(=O)C(F)(F)F)C(=O)N1C[C@H]2[C@@H]([C@H]1C(=O)N[C@H](C#N)C[C@@H]1CCNC1=O)C2(C)C [Nirmatrelvir, (1R,2S,5S)-N-((S)-1-Cyano-2-((S)-2-oxopyrrolidin-3-yl)ethyl)-3-((S)-3,3-dimethyl-2-(2,2,2-trifluoroacetamido)butanoyl)-6,6-dimethyl-3-azabicyclo[3.1.0]hexane-2-carboxamide, reference compound]	complete viral breakthrough	hardly any infected cells	hardly any infected cells	potently blocked	
CC(C)(C)[C@H](NC(=O)C(Cl)(Cl)Cl)C(=O)N1C[C@H]2[C@@H]([C@H]1C(=O)N[C@H](C#N)C[C@@H]1CCCNC1=O)C2(C)C [Compound 5f, (1R,2S,5S)-N-((S)-1-Cyano-2-((S)-2-oxopiperidin-3-yl)ethyl)-3-((S)-3,3-dimethyl-2-(2,2,2-trichloroacetamido)butanoyl)-6,6-dimethyl-3-azabicyclo[3.1.0]hexane-2-carboxamide]					improvement in antiviral activity over nirmatrelvir 1 (SARS-CoV-2; ratio of EC50 values): over 7 fold
CC(C)(C)[C@H](NC(=O)C(F)(F)F)C(=O)N1C[C@H]2[C@@H]([C@H]1C(=O)N(C(=O)C(F)(F)F)[C@H](C#N)C[C@@H]1CCNC1=O)C2(C)C [Compound 5h, (1R,2S,5S)-N-((S)-1-Cyano-2-((S)-2-oxopyrrolidin-3-yl)ethyl)-3-((S)-3,3-dimethyl-2-(2,2,2-trifluoroacetamido)butanoyl)-6,6-dimethyl-N-(2,2,2-trifluoroacetyl)-3-azabicyclo[3.1.0] hexane-2-carboxamide]					Mpro inhibitory activity (in words) (SARS-CoV-2 3CLpro): no appreciable; antiviral activity (in words) (SARS-CoV-2): no appreciable
CC(C)(C)NC(=O)N[C@H](C(=O)N1C[C@H]2[C@@H]([C@H]1C(=O)N[C@H](C#N)C[C@@H]1CCNC1=O)C2(C)C)C(C)(C)C [Compound 5m, (1R,2S,5S)-3-((S)-2-(3-(Tert-butyl)ureido)-3,3-dimethylbutanoyl)-N-((S)-1-cyano-2-((S)-2-oxopyrrolidin-3-yl)ethyl)-6,6-dimethyl-3-azabicyclo[3.1.0]hexane-2-carboxamide]					loss of antiviral activity compared to Boc-derivative 5g (SARS-CoV-2): 3 fold
CC(C)(C)[C@H](NC(=O)OCc1cccnc1)C(=O)N1C[C@H]2[C@@H]([C@H]1C(=O)N[C@H](C#N)C[C@@H]1CCNC1=O)C2(C)C [Compound 5k, Pyridin-3-ylmethyl((2S)-1-((1R,2S,5S)-2-((1-cyano-2-((S)-2-oxopyrrolidin-3-yl)ethyl)carbamoyl)-6,6-dimethyl-3-azabicyclo[3.1.0]hexan-3-yl)-3,3-dimethyl-1-oxobutan-2-yl)carbamate]					improvement of antiviral activity compared to benzyl carbamate derivative 5i (SARS-CoV-2): > 8 fold
CC(C)(C)[C@H](NC(=O)C(F)(F)F)C(=O)N1C[C@H]2[C@@H]([C@H]1C(=O)N[C@H](C#N)C[C@@H]1CCCNC1=O)C2(C)C [Compound 5e, (1R,2S,5S)-N-((S)-1-Cyano-2-((S)-2-oxopiperidin-3-yl)ethyl)-3-((S)-3,3-dimethyl-2-(2,2,2-trifluoroacetamido)butanoyl)-6,6-dimethyl-3-azabicyclo[3.1.0]hexane-2-carboxamide]	some infected cells were observed	hardly any infected cells	hardly any infected cells	significantly reduced; also recorded: potently blocked	improvement of Mpro inhibitory activity over nirmatrelvir 1 (SARS-CoV-2 3CLpro; ratio of Ki values): more than 6 fold; toxicity (VeroE6 cells): without significant toxicity
